Data reported in ChEMBL document CHEMBL1201862, “PubChem BioAssay data set” (2004).
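Dose response: 5 concentrations. Exposure: 48 h. Format: 96-well plates. Endpoint: linear interpolation; highest concentration if not reached. GI50 marks 50% less growth.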 The source made the active and inactive calls. Cut-off read from the data, not from the text of the source: active = GI50 up to about 1.1 µM and inactive = higher.

How the values were obtained:
Assay in all cases: NCI-60 cell line screen, 48 h
DMS-273 = tested on: DMS-273
HCC 2998 = tested on: HCC 2998
HCT-116 = tested on: HCT-116
HL-60 = tested on: HL-60
HOP-92 = tested on: HOP-92
LOX IMVI = tested on: LOX IMVI
LXFL 529 = tested on: LXFL 529
M14 = tested on: M14
Malme-3M = tested on: Malme-3M
NCI-H226 = tested on: NCI-H226
NCI-H23 = tested on: NCI-H23
OVCAR-4 = tested on: OVCAR-4
OVCAR-5 = tested on: OVCAR-5
SF-268 = tested on: SF-268
SK-MEL-5 = tested on: SK-MEL-5
SNB-19 = tested on: SNB-19
SW-620 = tested on: SW-620
U-251 = tested on: U-251
UACC-257 = tested on: UACC-257

Measured: GI50

COC(=O)C1=Cc2cc(OC)c(OC)c(OC)c2[C@H](c2cc(OC)c(OC)c(OC)c2)C1C(=O)OC (some centres undefined)
inactive: DMS-273 > 100 µM | HCC 2998 > 100 µM | HCT-116 > 100 µM | HL-60 > 100 µM | HOP-92 1.73 µM | LOX IMVI > 100 µM | LXFL 529 > 100 µM | M14 > 100 µM | Malme-3M > 100 µM | NCI-H226 > 100 µM | NCI-H23 > 100 µM | OVCAR-4 > 100 µM | OVCAR-5 > 100 µM | SF-268 > 100 µM | SK-MEL-5 > 100 µM | SNB-19 > 100 µM | SW-620 > 100 µM | U-251 > 100 µM | UACC-257 > 100 µM

CC(C)c1ccccc1NC(=O)CCC(=O)NN
inactive: DMS-273 > 100 µM | HCT-116 > 100 µM | HL-60 > 100 µM | HOP-92 > 100 µM | LOX IMVI > 100 µM | LXFL 529 > 100 µM | M14 > 100 µM | Malme-3M > 100 µM | NCI-H226 > 100 µM | NCI-H23 > 100 µM | SF-268 > 100 µM | SNB-19 > 100 µM | SW-620 > 100 µM | U-251 > 100 µM | UACC-257 > 100 µM

CCSc1nnc(-c2ccccc2)nc1Cc1ccc(OC)cc1
inactive: DMS-273 71.9 µM | HCC 2998 > 100 µM | HCT-116 38.5 µM | HL-60 40.5 µM | HOP-92 > 100 µM | LOX IMVI 47.9 µM | LXFL 529 50.8 µM | M14 > 100 µM | Malme-3M > 100 µM | NCI-H226 > 100 µM | NCI-H23 63.4 µM | OVCAR-4 > 100 µM | SF-268 > 100 µM | SNB-19 > 100 µM | SW-620 > 100 µM | U-251 79.6 µM | UACC-257 56.5 µM

CSc1sc(=S)sc1C(=O)N(C)c1ccccc1
inactive: DMS-273 > 100 µM | HCT-116 > 100 µM | HL-60 35.6 µM | LOX IMVI > 100 µM | LXFL 529 > 100 µM | M14 > 100 µM | Malme-3M > 100 µM | NCI-H226 > 100 µM | NCI-H23 > 100 µM | OVCAR-4 > 100 µM | OVCAR-5 > 100 µM | SF-268 > 100 µM | SK-MEL-5 > 100 µM | SNB-19 > 100 µM | SW-620 > 100 µM | U-251 > 100 µM

CC12CC/C(=N/NC(N)=O)C3C1CCCC32
inactive: DMS-273 > 100 µM | HCC 2998 > 100 µM | HCT-116 > 100 µM | HL-60 > 100 µM | HOP-92 > 100 µM | LOX IMVI > 100 µM | LXFL 529 > 100 µM | M14 > 100 µM | Malme-3M > 100 µM | NCI-H226 > 100 µM | NCI-H23 > 100 µM | OVCAR-4 > 100 µM | SF-268 > 100 µM | SK-MEL-5 > 100 µM | SNB-19 > 100 µM | SW-620 > 100 µM | U-251 > 100 µM | UACC-257 > 100 µM

COc1ccc(-c2cc(-c3cc(Cl)cc(Br)c3O)nc(O)n2)cc1
inactive: DMS-273 15 µM | HCC 2998 19.9 µM | HCT-116 12.2 µM | HL-60 23.2 µM | HOP-92 17.8 µM | LOX IMVI 17.3 µM | LXFL 529 14.6 µM | M14 19.2 µM | Malme-3M 19.4 µM | NCI-H226 17.5 µM | NCI-H23 14 µM | OVCAR-4 5.66 µM | SF-268 16.3 µM | SNB-19 23.9 µM | SW-620 20.7 µM | U-251 17 µM | UACC-257 17.7 µM

N#[N+][c-]1c(-c2ccccc2)n[nH]c1=O
inactive: DMS-273 > 100 µM | HCC 2998 > 100 µM | HCT-116 > 100 µM | HL-60 > 100 µM | HOP-92 > 100 µM | LOX IMVI > 100 µM | LXFL 529 > 100 µM | M14 > 100 µM | Malme-3M > 100 µM | NCI-H226 > 100 µM | NCI-H23 > 100 µM | OVCAR-4 > 100 µM | OVCAR-5 > 100 µM | SF-268 > 100 µM | SW-620 > 100 µM | U-251 > 100 µM | UACC-257 > 100 µM

BrC12C3C4C5C(C(C43)C13OCCO3)C52 (centres undefined)
inactive: DMS-273 > 100 µM | HCC 2998 > 100 µM | HCT-116 > 100 µM | HL-60 > 100 µM | HOP-92 58.1 µM | LOX IMVI > 100 µM | LXFL 529 > 100 µM | Malme-3M > 100 µM | NCI-H23 > 100 µM | OVCAR-5 > 100 µM | SF-268 > 100 µM | SK-MEL-5 > 100 µM | SNB-19 > 100 µM | SW-620 > 100 µM | U-251 > 100 µM | UACC-257 > 100 µM

CC(C)CCC[C@@H](C)C1CCC2[C@@H]3CC=C4C[C@@H](C(=O)NCC[N+](C)(C)CCCS(=O)(=O)[O-])CC[C@]4(C)C3CC[C@@]21C (some centres undefined)
inactive: DMS-273 17 µM | HCC 2998 19.8 µM | HCT-116 16.8 µM | HL-60 13.4 µM | LOX IMVI 11.7 µM | LXFL 529 18.8 µM | M14 17.2 µM | Malme-3M 18.9 µM | NCI-H226 21.2 µM | OVCAR-4 20.3 µM | SF-268 21.1 µM | SK-MEL-5 19.9 µM | SNB-19 21.8 µM | SW-620 16.6 µM | U-251 17.3 µM | UACC-257 20 µM

CC1CC2C3CCC4=CC(=O)C=CC4(C)C3(F)C(O)CC2(C)C1(O)C(=O)CO.Cc1nnc(NS(=O)(=O)c2ccc(/N=N/c3cc(/N=N/c4ccc(S(=O)(=O)Nc5nnc(C)s5)cc4)c4c(NC(=O)C(Cl)Cl)cccc4c3OC(=O)C(Cl)Cl)cc2)s1
inactive: DMS-273 11.7 µM | HCC 2998 21.3 µM | HCT-116 15 µM | HL-60 9.95 µM | HOP-92 51.6 µM | LOX IMVI 33.3 µM | LXFL 529 31.9 µM | M14 28.4 µM | Malme-3M 26.5 µM | NCI-H23 12.1 µM | OVCAR-4 22.6 µM | OVCAR-5 27.9 µM | SF-268 24 µM | SK-MEL-5 22.4 µM | SNB-19 48.5 µM | SW-620 22.6 µM | U-251 37.1 µM | UACC-257 38.5 µM

O=C(O)[C@H](NS(=O)(=O)c1ccc2ccccc2c1)c1ccccc1
inactive: DMS-273 > 100 µM | HCC 2998 > 100 µM | HL-60 > 100 µM | HOP-92 45.3 µM | LOX IMVI > 100 µM | LXFL 529 > 100 µM | M14 > 100 µM | Malme-3M > 100 µM | NCI-H23 > 100 µM | OVCAR-4 > 100 µM | OVCAR-5 > 100 µM | SF-268 > 100 µM | SNB-19 > 100 µM | U-251 > 100 µM | UACC-257 > 100 µM
